# Source: patent US7754765B2, “Copper chelators for treating ocular inflammation” (Radical Vision Therapeutics Inc, priority 2000, dated 2010)
# Assays:
# [1] = system: retina; test: Retinal thickness (edema) after laser photocoagulation in rats; type: in vivo, Long-Evans rats; conditions: 0.5 mmol/kg/day intraperitoneally; for retinal thickness, greater than that in normal retina: saline control 50%; for retinal thickness (edema) compared with control (saline injected), in words: day 1 post photocoagulation
# [2] = system: retina; test: Retinal thickness (edema) after PDT (verteporfin) in rabbits; type: in vivo, Pigmented rabbits; conditions: for retinal thickness, greater than that in normal retina: 24 hours after PDT, 0.2 mmol/kg/day intramuscularly, saline control 140%; for retinal thickness (edema) compared with control (saline injected), in words: day 1 post PDT, TRIEN or TETREN (0.2 mM/day)
# [3] = system: ED-1 immunoreactive (macrophage) cells in retina; test: ED-1 (macrophage) immunostaining of retina after photocoagulation in rats; type: in vivo; conditions: vs saline injected; for number of ED-1 positive retina cells relative to controls (in words): 24 hours after laser treatment; for number of ED-1 positive cells, times less than control: Day 1 post photocoagulation, average of four 40× objective fields
compound,measurement,setting,value
"CC(C)(S)[C@@H](N)C(=O)O [D-PA, D-penicillamine]","retinal thickness, greater than that in the control animals (saline injected)",[1]; 24 hours post photocoagulation,35%
same,"retinal thickness, greater than that in normal retina",[1]; 24 hours post photocoagulation,85%
same,"retinal thickness (edema) compared with control (saline injected), in words",[1],greater than that in control eyes
same,"retinal thickness (edema) compared with control (saline injected), in words",[1]; listed as DPA,showed the opposite effect
"NCCNCCNCCNCCN [TETREN, tetraethylenepentamine]","retinal thickness, greater than that in normal retina",[1]; 24 hours post photocoagulation,26%
same,"retinal thickness (edema) compared with control (saline injected), in words",[1],retinal thickness of eyes from control animals (saline injected) is greater
same,"retinal thickness, greater than that in normal retina",[2],45%
same,"retinal thickness (edema) compared with control (saline injected), in words",[2],significantly less than that in control
same,number of ED-1 positive retina cells relative to controls (in words),[3],more than half that of control animals
same,"number of ED-1 positive cells, times less than control",[3],2.5 times
"NCCNCCNCCN [TRIEN, triethylenetetramine]","retinal thickness, greater than that in normal retina",[1]; 24 hours post photocoagulation,23%
same,"retinal thickness (edema) compared with control (saline injected), in words",[1],retinal thickness of eyes from control animals (saline injected) is greater
same,"retinal thickness, greater than that in normal retina",[2],50%
same,"retinal thickness (edema) compared with control (saline injected), in words",[2],significantly less than that in control
same,number of ED-1 positive retina cells relative to controls (in words),[3],approximately half that of the controls
same,"number of ED-1 positive cells, times less than control",[3],two times less
